pIC50: −log10 of the molar value.
Tests used:
[1] = system: reactive oxygen metabolites (ROMs) in human fibroblasts; test: Intracellular ROM quantification with 2',7'-dichlorofluorescein diacetate probe in oxidized fibroblasts; format: cell-based; details: 1 mM H2O2; for F.U. (fluorescence units) / % decrease of ROS: 1% LBG, 5 mM NAC, 5 μM Turmeric; for F.U. (fluorescence units): fluorescence at 538 nm, 20 minutes after the start of the oxidation; for % decrease of ROS: with respect to the oxidized control
Description: To quantify the ROM-decreasing or antioxidant capacity of LBG, NAC and turmeric, the production of the ROMs generated upon oxidizing a culture of fibroblasts with a high concentration of hydrogen peroxide was measured.
The intracellular ROMs were quantified by means of the labeling thereof with the fluorescent probe 2′,7′-dichlorofluorescein diacetate (Molecular Probes D399). This probe is capable of emitting fluorescence at 538 nm when it is oxidized with reactive oxygen metabolites. The cell oxidation was carried out with 1 mM hydrogen peroxide.
The day before the assay, the fibroblasts were seeded in a 96-well plate at a density of 11500 cells per well. All the assays were performed in triplicate.
The treatments were prepared on the day of the experiment and the hydrogen peroxide was added just before the assay.
A solution of locust bean gum of 1% in distilled water was prepared and heated above 100° C. until completing dissolution of the gum.
The solution was then centrifuged for 20 minutes at 4000 rpm to remove the impurities from the mixture. The solution of the locust bean gum was lyophilized. The lyophilisate was dissolved in cell growth medium (DMEM+10% FBS) at a concentration of 1%.
Before adding the treatments and the hydrogen peroxide, the cells were labeled with the fluorescent probe at a concentration of 50 μM for 30 minutes in darkness.
The NAC and Turmeric treatments and the hydrogen peroxide were prepared just before starting the assay. To prepare the turmeric stock, it is necessary to know the purity of the Turmeric batch available and readjust the calculation to add the necessary concentration.
After labeling the cells, the antioxidant treatments and the hydrogen peroxide were added.
The fluorescence emitted at 538 nm by the probe was collected 20 minutes after the start of the oxidation.
However, in this case the decrease in intracellular ROM levels was taken as a reference with respect to the oxidized control.

human fibroblasts = test: MTT cytotoxicity and proliferation assay, limit concentrations of NAC and turmeric; format: cell-based
Description: The proliferation assay was carried out using the MTT colorimetric assay (Roche 11465007001). MTT is a yellow tetrazolium salt which forms formazan crystals in active cells. The formazan crystals are solubilized and the resulting color is quantified by means of spectrophotometry at 550 nm. […] The cells were maintained at 37° C. in an incubation stove. The following day, the treatments of NAC and Turmeric were added to the cell culture using a volume of 200 μL per well. The cell culture was left to incubate for 24, 48 and 72 hours. After each incubation time, 20 μL of MTT (a final concentration of 0.5 mg/mL) were added to each well. The plate was maintained for 4 hours in the incubation stove in order to allow the formation of formazan crystals. Subsequently, 100 μL of solubilizer was added to each well and the plate was left in the incubation stove until the following day.

Row | SMILES | intracellular ROM levels [1] | F.U. (fluorescence units) [1] | % decrease of ROS [1] | IC50 (concentration causing a 50% cell decrease with respect to the control) (human fibroblasts; NAC studied from 0.5 mM to 20 mM, 72 hours) | proliferative rate in the fibroblasts (human fibroblasts; concentrations of 1 and 5 mM) | cell proliferation with respect to the control (human fibroblasts; concentrations of 10 and 20 mM) | maximum limit of concentration (human fibroblasts; toxicity limit from MTT assay) | pIC50 (human fibroblasts; Homo sapiens, Fibroblast, 72 h, read-out: IC50 (concentration causing a 50% cell decrease with respect to the control)) | toxicity (human fibroblasts; concentration of 10 μM) | toxicity (human fibroblasts; concentrations of 1 and 5 μM) | toxicity (human fibroblasts; concentrations of 20 and 50 μM) | maximum limit of use in the mixture (human fibroblasts; toxicity limit from MTT assay)
1 | CC(=O)N[C@@H](CS)C(=O)O [NAC, N-acetyl cysteine, reference compound] | significant decrease of the intracellular ROM levels | 1.82 | 85% | none of the concentrations studied reached IC50 | improvement of the proliferative rate | progressively reduced cell proliferation | 10 mM |  |  |  |  | 
2 | COc1cc(/C=C/C(=O)/C=C(O)/C=C/c2ccc(O)c(OC)c2)ccc1O [Turmeric, curcumin] | significant decrease of the intracellular ROM levels | 2.31 | 81% |  |  |  |  | 5.12 | exceeds the limit at 72 hours | no toxic effects were observed | toxicity from the first 24 hours, exceeding the IC50 limit | 7.5 µM
